pIC50: −log10 of the molar value. Structures can show the parent of a compound that is named as a salt.

Series [1] in a line: Pharmacokinetic parameters in male Sprague Dawley rats (intravenous and oral administration). The series is classed as in vivo. The settings on record: dose per compound (mg/kg); for AUC / Cl / T1/2 / Vdss / Cl/F / Cmax / Tmax: rat plasma; for bioavailability: rat. The gist of the method: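 IV dosing via tail vein (solution in water or DMSO:PBS 10:90) and oral dosing (water or DMSO:water 10:90); some oral groups fasted overnight. Serial plasma sampled at 8, 9 or 12 time-points up to 24 h post dose. PK parameters derived from LC-MS/MS plasma concentrations.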

Series [2] addresses T1, NLRP3 (Homo sapiens, UniProt Q96P20). Nature of the series: THP-1 cells pyroptosis assay. The series is classed as cell-based. Details: Seed THP-1 cells (25,000 cells/well) containing 1.0 μg/ml LPS; host or cells: THP-1 cells, LPS-primed, nigericin-stimulated. The conditions noted are these: THP-1 cells, 1.0 μg/ml LPS, compound 3 hrs, nigericin 5 μM 1 hr, resazurin readout; read-out: THP IC50. The gist of the method: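 THP-1 cells (25,000/well) in serum-free RPMI with 1.0 μg/ml LPS, treated with compound (8-point half-log dilution, 10 μM top, 0.1% DMSO), then nigericin 5 μM final. Viability read by resazurin (100 μM final, 1-2 h, 37° C) fluorescence Ex 560/Em 590 nm; IC50 from 4-parameter variable-slope fit.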
A general note: The colour change of resazurin is a common sign of viable cells or microbes.

Series [3] addresses T1, NLRP3. Nature of the series: Human whole blood IL1β release assay. Details: Human whole blood in Li-heparin tubes was obtained from healthy donors; from tissue; host or cells: human whole blood from healthy donors, LPS-primed, nigericin-stimulated. The series is classed as cell-based. The conditions noted are these: human whole blood, 1 μg/ml LPS, compound 3 hrs, nigericin 10 μM 1 hr, IL-1β AlphaLisa; read-out: HWB IC50. The method in brief: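 Healthy-donor human whole blood (Li-heparin) primed with 1 μg/ml LPS, with compound (8-point half-log, 10 μM top) or 0.1% DMSO for 3 h at 37 °C, then 10 μM nigericin (final) for 1 h. Supernatant IL-1β read by AlphaLISA; IC50 from 4-parameter variable-slope fit.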
On the technique in general: Alpha assays give light when donor and acceptor beads are brought close together.

T1 sequence (Q96P20 whole entry): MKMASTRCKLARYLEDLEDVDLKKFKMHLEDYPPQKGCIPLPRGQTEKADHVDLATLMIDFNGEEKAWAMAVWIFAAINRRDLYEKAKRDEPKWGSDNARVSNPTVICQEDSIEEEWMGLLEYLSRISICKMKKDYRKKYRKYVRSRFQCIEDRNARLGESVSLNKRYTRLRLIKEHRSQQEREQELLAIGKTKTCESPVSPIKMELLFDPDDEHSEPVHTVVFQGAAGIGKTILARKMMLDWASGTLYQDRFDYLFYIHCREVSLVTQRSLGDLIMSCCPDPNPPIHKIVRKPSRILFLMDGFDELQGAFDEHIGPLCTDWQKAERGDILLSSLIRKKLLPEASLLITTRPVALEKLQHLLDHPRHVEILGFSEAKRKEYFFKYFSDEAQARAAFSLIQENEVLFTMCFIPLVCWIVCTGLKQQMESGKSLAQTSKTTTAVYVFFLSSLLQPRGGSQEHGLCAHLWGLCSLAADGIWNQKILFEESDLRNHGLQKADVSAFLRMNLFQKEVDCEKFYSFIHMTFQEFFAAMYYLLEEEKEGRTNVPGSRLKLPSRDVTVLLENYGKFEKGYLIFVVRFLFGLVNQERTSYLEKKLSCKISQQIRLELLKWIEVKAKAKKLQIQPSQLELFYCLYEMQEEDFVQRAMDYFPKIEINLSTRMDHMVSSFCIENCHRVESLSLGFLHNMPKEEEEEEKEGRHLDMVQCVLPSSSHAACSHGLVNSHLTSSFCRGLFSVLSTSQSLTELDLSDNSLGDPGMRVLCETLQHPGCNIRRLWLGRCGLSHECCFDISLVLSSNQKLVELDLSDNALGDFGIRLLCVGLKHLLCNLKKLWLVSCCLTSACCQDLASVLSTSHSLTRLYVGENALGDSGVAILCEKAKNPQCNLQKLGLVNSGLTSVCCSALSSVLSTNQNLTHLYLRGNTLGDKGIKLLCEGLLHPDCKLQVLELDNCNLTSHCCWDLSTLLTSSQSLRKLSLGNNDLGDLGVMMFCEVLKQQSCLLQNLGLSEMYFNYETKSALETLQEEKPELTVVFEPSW

The term AUC denotes the area under the concentration-time curve, a measure of exposure. As usually defined, the pIC50 is the negative decadic logarithm of the IC50, by convention in mol/L. As to `CC(C)c1cc(F)cc(C(C)C)c1NC(=O)NS(=O)(=O)c1cc(C(=O)N2CCC2)n(C)n1` [Example 145, 5-(azetidine-1-carbonyl)-N-((4-fluoro-2,6-diisopropylphenyl)carbamoyl)-1-methyl-1H-pyrazole-3-sulfonamide, sodium salt], in series [1] (intravenous administration), the AUC is 415.0 ng·h/mL, the Cl is 40.3 mL/min/kg, the T1/2 was 6.4 h and the Vdss is reported as 7.96 L/kg. In addition, the pIC50 at NLRP3 [2] is > 6.80. Besides, at NLRP3 [3], the pIC50 was > 6.40.

Broadly, the Cmax is the highest concentration seen after dosing. As usually defined, the Tmax is the time at which the peak concentration occurs. With `CC(C)c1cc(F)cc(C(C)C)c1NC(=O)NS(=O)(=O)c1cc(C(=O)N(C)C)n(C)n1` [Example 160, 3-(N-((4-Fluoro-2,6-diisopropylphenyl)carbamoyl)sulfamoyl)-N,N,1-trimethyl-1H-pyrazole-5-carboxamide, sodium salt], in series [1] (intravenous administration), the AUC worked out at 283.3 ng·h/mL, the Cl is given as 59.2 mL/min/kg, the T1/2 was 3.3 h and the Vdss is given as 4.08 L/kg. In series [1] (oral administration), this compound registered an AUC of 769.7 ng·h/mL, a Cl/F of 109.8 mL/min/kg, a Cmax of 494.7 ng/mL and a T1/2 of 9.7 h. Further, in series [1] (oral administration), the Tmax is 0.17 h and the bioavailability was determined as 54.3. Also, on NLRP3 [2], the pIC50 is > 6.19. The pIC50 at NLRP3 [3] is > 6.40.

In series [1] (intravenous administration), `CCN(C)C(=O)c1cc(S(=O)(=O)NC(=O)Nc2c3c(cc4c2CCC4)CCC3)nn1C` [Example 162, N-Ethyl-3-(N-((1,2,3,5,6,7-hexahydro-s-indacen-4-yl)carbamoyl)sulfamoyl)-N,1-dimethyl-1H-pyrazole-5-carboxamide] showed an AUC of 1723.1 ng·h/mL, a Cl of 25.0 mL/min/kg, a T1/2 of 0.1 h and a Vdss of 0.24 L/kg. The pIC50 at NLRP3 [2] was > 6.80. Moreover, the pIC50 at NLRP3 [3] is > 6.10.

In series [1] (intravenous administration), `CC(C)c1cccc(C(C)C)c1NC(=O)NS(=O)(=O)c1cc(C(=O)N(C)C)n(C)n1` [Example 167, 3-(N-((2,6-Diisopropylphenyl)carbamoyl)sulfamoyl)-N,N,1-trimethyl-1H-pyrazole-5-carboxamide, sodium salt] returned an AUC of 333.7 ng·h/mL, a Cl of 48.7 mL/min/kg, a T1/2 of 0.5 h and a Vdss of 0.99 L/kg. Besides, the pIC50 at NLRP3 [2] was > 6.19. The pIC50 on NLRP3 [3] is > 6.40.

In series [1] (intravenous administration), `CN(C)C(=O)c1cc(S(=O)(=O)NC(=O)Nc2c3c(cc4c2CCC4)CCC3)nn1C` [Example 169, 3-(N-((1,2,3,5,6,7-Hexahydro-s-indacen-4-yl)carbamoyl)sulfamoyl)-N,N,1-trimethyl-1H-pyrazole-5-carboxamide, sodium salt] gave an AUC of 3389.9 ng·h/mL, a Cl of 24.8 mL/min/kg, a T1/2 of 25.3 h and a Vdss of 17.78 L/kg. In series [1] (oral administration), the AUC came to 1052.0 ng·h/mL, the Cl/F amounted to 49.5 mL/min/kg, the Cmax was 599.6 ng/mL and the T1/2 came out at 3.4 h. In addition, in series [1] (oral administration), the Tmax is 0.25 h and the bioavailability is 62.0. Moreover, on NLRP3 [2], the pIC50 was > 6.80. In addition, the pIC50 at NLRP3 [3] was > 6.40.

As for `CN(CCO)C(=O)c1cc(S(=O)(=O)NC(=O)Nc2c3c(cc4c2CCC4)CCC3)nn1C` [Example 176, 3-(N-((1,2,3,5,6,7-Hexahydro-s-indacen-4-yl)carbamoyl)sulfamoyl)-N-(2-hydroxyethyl)-N,1-dimethyl-1H-pyrazole-5-carboxamide, partial ammonium salt], in series [1] (intravenous administration), the area under the curve (AUC) came to 786.6 ng·h/mL, the Cl was found to be 114.1 mL/min/kg, the T1/2 came out at 0.3 h and the Vdss was 2.37 L/kg. The pIC50 at NLRP3 [2] was > 6.80. In addition, the pIC50 on NLRP3 [3] was > 6.40.
